Reference: doi:10.1101/2023.03.24.534094v2 (biorxiv, 2023)
Read-outs that look alike come from different tables or passages of the source.

Experiments:
[1] = target: MSSK1 (Homo sapiens, UniProt Q9UPE1); test: biochemical
[2] = target: Erk3 (Homo sapiens, UniProt Q16659); test: biochemical
[3] = target: T1, EpHB4 (Homo sapiens, UniProt P54760); test: NanoBRET target engagement; format: cell-based
T1 sequence (P54760 16-987): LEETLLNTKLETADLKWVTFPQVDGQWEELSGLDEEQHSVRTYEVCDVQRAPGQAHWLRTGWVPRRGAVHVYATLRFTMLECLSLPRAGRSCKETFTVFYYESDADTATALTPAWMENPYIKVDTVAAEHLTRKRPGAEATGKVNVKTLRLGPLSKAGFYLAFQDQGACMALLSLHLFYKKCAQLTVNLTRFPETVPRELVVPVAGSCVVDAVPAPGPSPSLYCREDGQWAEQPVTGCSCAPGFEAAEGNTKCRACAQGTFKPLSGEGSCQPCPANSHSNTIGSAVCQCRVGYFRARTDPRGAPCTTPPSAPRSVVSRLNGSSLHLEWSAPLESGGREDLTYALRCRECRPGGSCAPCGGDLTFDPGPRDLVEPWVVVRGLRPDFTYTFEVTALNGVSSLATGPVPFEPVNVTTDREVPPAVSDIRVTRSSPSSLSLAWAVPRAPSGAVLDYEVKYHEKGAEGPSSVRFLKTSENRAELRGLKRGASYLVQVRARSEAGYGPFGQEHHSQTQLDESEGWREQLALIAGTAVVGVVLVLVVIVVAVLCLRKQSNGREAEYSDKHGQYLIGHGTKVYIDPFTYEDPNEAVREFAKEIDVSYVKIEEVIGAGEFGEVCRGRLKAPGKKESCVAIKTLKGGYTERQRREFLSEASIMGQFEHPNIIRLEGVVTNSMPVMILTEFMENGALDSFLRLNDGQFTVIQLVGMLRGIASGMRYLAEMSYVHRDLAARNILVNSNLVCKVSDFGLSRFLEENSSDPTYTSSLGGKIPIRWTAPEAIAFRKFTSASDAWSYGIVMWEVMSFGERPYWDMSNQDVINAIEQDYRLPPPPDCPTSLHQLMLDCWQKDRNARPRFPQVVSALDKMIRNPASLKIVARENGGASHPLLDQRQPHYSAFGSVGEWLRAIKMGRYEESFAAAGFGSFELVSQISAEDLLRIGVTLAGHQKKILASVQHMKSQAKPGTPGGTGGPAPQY

[4] = target: T2, EpHB1 (Homo sapiens, UniProt P54762); test: NanoBRET target engagement; format: cell-based
T2 sequence (P54762 18-984): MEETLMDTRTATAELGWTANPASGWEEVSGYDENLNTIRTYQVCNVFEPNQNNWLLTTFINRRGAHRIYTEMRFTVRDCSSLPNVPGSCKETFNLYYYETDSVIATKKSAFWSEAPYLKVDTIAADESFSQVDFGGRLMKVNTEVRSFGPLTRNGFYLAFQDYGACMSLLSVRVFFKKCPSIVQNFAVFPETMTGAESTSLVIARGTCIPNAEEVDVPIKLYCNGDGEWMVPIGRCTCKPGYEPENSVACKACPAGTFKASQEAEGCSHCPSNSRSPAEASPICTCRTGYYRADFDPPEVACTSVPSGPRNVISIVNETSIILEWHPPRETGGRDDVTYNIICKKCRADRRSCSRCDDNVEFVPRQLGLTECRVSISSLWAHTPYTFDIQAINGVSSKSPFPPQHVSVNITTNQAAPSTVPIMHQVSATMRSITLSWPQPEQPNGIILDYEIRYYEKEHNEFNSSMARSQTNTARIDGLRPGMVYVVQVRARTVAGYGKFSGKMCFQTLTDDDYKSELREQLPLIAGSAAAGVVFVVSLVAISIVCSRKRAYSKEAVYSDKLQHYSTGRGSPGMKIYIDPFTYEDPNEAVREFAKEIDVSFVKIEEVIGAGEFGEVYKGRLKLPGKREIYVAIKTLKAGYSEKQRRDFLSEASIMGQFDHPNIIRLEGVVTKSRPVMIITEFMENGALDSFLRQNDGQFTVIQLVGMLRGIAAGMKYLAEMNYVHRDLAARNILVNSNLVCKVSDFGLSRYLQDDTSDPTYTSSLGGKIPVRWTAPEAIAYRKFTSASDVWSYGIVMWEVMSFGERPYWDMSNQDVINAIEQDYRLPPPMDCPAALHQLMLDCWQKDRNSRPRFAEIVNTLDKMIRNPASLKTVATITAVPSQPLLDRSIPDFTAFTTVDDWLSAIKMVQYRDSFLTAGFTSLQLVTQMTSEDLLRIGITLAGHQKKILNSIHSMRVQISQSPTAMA

[5] = target: EpHB2 (Homo sapiens, UniProt P29323); test: NanoBRET target engagement; format: cell-based
[6] = target: EpHB3 (Homo sapiens, UniProt P54753); test: NanoBRET target engagement; format: cell-based
[7] = target: EpHA4 (Homo sapiens, UniProt P54764); test: NanoBRET target engagement; format: cell-based
[8] = target: T3, MST2 (Homo sapiens, UniProt Q13188); test: biochemical
T3 sequence (Q13188 1-491): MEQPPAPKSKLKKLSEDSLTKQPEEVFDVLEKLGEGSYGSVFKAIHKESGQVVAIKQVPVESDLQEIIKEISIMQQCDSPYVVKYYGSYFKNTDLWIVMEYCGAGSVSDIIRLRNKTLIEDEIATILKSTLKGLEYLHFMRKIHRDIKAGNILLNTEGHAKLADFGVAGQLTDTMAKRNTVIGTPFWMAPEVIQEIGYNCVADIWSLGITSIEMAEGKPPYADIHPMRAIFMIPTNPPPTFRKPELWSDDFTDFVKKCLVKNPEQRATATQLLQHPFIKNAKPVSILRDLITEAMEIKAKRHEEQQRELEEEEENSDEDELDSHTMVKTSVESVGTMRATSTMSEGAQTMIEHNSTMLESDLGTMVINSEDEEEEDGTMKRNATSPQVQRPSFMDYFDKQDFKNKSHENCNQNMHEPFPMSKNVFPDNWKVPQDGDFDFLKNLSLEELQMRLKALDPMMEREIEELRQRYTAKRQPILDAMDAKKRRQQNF

[9] = intact mode, HEK293T, 37 °C, 2 h, tracer displacement

Chain of EpHA4 (P54764 20-986): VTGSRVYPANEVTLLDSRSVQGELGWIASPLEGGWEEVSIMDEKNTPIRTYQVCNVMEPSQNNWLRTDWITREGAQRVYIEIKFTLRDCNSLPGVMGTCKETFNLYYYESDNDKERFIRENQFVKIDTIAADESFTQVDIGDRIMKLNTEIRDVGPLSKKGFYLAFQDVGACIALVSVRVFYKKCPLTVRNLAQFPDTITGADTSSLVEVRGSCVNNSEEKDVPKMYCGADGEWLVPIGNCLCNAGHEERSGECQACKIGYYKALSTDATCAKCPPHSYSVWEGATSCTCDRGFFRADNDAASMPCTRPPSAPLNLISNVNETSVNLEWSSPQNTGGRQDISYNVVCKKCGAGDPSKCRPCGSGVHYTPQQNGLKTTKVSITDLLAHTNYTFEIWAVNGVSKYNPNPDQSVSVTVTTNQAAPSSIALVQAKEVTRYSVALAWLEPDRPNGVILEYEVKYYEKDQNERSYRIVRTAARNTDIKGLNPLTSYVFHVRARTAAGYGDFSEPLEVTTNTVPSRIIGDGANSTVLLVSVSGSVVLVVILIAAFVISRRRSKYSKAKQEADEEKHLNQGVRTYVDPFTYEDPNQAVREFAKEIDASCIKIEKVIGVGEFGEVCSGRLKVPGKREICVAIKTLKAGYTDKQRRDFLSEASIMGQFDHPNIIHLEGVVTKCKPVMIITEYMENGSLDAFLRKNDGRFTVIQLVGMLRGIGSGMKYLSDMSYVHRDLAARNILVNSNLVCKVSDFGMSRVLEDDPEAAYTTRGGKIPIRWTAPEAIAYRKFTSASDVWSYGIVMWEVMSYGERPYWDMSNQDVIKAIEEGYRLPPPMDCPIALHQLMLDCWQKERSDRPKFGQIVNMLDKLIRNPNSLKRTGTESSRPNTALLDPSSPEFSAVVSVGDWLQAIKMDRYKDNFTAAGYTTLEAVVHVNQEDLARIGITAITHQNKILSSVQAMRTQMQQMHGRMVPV
Chain of Erk3 (Q16659 whole entry): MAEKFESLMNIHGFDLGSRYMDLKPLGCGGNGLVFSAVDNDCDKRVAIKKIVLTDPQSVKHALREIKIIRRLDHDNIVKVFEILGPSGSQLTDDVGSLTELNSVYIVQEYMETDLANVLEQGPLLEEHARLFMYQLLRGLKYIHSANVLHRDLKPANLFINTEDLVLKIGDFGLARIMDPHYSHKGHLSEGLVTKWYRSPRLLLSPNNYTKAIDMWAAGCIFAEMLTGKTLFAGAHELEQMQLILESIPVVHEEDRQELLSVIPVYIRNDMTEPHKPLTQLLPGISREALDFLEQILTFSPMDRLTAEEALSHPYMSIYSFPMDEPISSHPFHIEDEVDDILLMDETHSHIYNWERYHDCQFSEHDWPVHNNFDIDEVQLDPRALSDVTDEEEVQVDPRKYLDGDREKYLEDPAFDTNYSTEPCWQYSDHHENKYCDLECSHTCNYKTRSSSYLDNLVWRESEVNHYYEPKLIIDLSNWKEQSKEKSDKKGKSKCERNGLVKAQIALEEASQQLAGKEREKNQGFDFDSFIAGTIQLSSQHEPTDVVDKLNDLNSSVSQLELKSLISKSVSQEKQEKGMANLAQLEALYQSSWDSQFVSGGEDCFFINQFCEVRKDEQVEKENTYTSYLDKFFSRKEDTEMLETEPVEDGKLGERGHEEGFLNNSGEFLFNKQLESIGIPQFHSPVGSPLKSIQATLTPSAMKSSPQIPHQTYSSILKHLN
Chain of EpHB2 (P29323 19-1055): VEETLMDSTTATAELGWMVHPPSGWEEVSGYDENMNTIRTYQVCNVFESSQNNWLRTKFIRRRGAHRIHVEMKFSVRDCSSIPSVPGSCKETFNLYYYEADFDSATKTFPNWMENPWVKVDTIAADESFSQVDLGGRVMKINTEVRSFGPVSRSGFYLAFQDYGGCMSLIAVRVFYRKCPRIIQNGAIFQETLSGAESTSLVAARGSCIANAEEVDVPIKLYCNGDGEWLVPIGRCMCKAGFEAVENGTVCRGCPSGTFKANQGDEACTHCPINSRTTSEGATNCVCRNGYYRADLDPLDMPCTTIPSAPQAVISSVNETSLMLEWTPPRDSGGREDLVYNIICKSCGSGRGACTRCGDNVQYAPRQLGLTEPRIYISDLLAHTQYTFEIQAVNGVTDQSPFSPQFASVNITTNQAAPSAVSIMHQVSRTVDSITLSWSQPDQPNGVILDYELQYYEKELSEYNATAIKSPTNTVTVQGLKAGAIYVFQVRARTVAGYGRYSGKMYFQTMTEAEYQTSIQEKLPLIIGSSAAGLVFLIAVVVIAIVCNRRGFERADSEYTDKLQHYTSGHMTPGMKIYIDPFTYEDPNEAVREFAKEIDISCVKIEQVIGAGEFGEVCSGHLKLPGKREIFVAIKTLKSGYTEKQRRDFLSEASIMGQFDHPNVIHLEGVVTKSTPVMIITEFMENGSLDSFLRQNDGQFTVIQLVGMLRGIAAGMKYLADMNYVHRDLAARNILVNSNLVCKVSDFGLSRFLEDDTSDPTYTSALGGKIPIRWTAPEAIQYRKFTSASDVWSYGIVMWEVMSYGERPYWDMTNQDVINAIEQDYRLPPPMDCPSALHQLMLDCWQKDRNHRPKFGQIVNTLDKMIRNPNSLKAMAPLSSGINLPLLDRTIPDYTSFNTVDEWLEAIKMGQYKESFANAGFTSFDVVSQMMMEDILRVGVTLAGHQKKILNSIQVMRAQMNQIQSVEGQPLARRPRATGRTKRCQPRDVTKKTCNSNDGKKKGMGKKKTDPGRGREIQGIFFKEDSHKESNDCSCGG
Chain of EpHB3 (P54753 34-998): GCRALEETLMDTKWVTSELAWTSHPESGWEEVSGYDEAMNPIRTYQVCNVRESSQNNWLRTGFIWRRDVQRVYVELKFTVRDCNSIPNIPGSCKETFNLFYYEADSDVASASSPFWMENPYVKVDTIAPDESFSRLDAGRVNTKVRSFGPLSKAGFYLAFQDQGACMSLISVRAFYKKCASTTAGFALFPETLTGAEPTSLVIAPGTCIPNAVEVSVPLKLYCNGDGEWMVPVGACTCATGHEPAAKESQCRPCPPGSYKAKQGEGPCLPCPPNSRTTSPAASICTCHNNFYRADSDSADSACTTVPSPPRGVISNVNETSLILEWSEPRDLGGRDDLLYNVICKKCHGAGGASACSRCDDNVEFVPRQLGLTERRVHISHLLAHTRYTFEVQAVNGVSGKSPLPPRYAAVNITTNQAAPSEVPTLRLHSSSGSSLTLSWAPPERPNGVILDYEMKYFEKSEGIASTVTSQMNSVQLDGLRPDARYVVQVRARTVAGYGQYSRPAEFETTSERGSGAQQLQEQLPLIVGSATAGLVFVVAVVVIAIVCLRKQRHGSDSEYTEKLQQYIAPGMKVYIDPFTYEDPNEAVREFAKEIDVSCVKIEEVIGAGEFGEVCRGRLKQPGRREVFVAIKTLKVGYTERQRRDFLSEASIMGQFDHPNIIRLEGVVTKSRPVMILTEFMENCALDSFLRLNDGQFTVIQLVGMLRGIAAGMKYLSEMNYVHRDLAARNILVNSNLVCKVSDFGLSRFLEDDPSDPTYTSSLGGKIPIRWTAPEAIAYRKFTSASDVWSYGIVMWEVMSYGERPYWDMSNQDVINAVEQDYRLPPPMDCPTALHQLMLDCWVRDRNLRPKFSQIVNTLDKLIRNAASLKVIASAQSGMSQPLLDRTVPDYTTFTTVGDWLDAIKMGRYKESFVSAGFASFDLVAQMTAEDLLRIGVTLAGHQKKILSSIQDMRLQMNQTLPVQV
Chain of MSSK1 (Q9UPE1 whole entry): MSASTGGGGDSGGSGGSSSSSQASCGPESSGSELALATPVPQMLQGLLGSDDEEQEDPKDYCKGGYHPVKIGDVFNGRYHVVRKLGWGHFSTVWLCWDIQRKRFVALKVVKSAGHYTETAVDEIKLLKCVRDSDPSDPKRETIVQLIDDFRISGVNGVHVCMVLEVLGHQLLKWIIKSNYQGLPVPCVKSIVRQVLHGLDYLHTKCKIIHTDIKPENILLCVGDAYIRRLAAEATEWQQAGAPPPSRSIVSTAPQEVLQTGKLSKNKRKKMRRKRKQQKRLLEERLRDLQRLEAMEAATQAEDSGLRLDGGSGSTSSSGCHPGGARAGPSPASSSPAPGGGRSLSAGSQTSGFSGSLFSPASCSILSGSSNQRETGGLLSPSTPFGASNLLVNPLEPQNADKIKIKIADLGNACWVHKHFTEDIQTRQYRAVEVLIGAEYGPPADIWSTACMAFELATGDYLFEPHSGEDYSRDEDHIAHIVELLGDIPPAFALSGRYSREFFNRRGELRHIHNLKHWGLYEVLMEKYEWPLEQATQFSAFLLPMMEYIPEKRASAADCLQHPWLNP

Row | IC50 [5] | IC50 [3] | IC50 [6] | IC50 [7] | IC50 [4] | SMILES | also measured
1 | – | – | – | – | – | CNc1ncc2cc(-c3cc(F)ccc3F)c(=O)n(CCCCN)c2n1 [compound 5, 8-(4-Aminobutyl)-6-(2,5-difluorophenyl)-2-(methylamino)pyrido[2,3-d]pyrimidin-7(8H)-one] | ΔTm at 10 µM ([1]; read-out: dTm MR22 (5)): -0.1 °C; ΔTm at 10 µM ([2]; read-out: dTm MR22 (5)): 0.5 °C; IC50 [3, 9]: 607 ± 37 nM; IC50 [4, 9]: 632 ± 10 nM
2 | > 1000 nM | 188 ± 17 nM | > 1000 nM | 346 ± 1 nM | 302 ± 26 nM | CNc1ncc2cc(-c3cc(Cl)ccc3Cl)c(=O)n(CCCCN)c2n1 [compound 8, 8-(4-Aminobutyl)-6-(2,5-dichlorophenyl)-2-(methylamino)pyrido[2,3-d]pyrimidin-7(8H)-one] | –
3 | > 1000 nM | 50 ± 12 nM | > 1000 nM | 66 ± 38 nM | 78 ± 2 nM | CNc1ncc2cc(-c3ccccc3Cl)c(=O)n(CCCCN)c2n1 [compound 4, 8-(4-Aminobutyl)-6-(2-chlorophenyl)-2-(methylamino)pyrido[2,3-d]pyrimidin-7(8H)-one] | ΔTm at 10 µM ([8]; read-out: ∆Tm MR21 (4)): 1 °C; ΔTm at 10 µM ([1]; read-out: dTm MR21 (4)): 0.2 °C
4 | – | – | – | – | – | CNc1ncc2cc(-c3ccc(-c4cccc(C)n4)cc3Cl)c(=O)n(CC3OCC(N)CO3)c2n1 (stereo not drawn) [compound 2, G-5555] | ∆Tm G-5555 (2) ([8]; 10 µM, binder): 6.9 degC; dTm G-5555 (2) ([2]; 10 µM, binder): 0.3 °C
